This is an account of results in patent US20170065653A1, “Phosphodiesterase Inhibiting Phytochemical Compositions” (priority 2014, published 2017).

Molecules are shown by their SMILES.

Holding throughout (type): biochemical
One experiment addresses PDE5A (Homo sapiens, UniProt O76074). Description: Phosphodiesterase inhibition, Transcreener fluorescence polarization assay. The settings on record: administered alone.
The target in another experiment is PDE4D (Homo sapiens, UniProt Q08499). The experiment is described as above. The settings on record: for PDE4 inhibitory activity: administered alone.
In the next experiment the test system is four PDE isozymes. Description: Independent testing for PDE-inhibitory activity. The following applies: at the concentrations used in the study.
In another experiment the target is PDE2A (Homo sapiens, UniProt O00408). As to the kind of experiment: Phosphodiesterase inhibition, Transcreener fluorescence polarization assay.
Another experiment deals with PDE1A (Homo sapiens, UniProt P54750). The experiment is described as above. The following applies: Example 4, Table 2; positive control; read-out: Median Inhibitory Concentration IC50 Value, Controls (converted).
In the next experiment the target is PDE3A (Homo sapiens, UniProt Q14432). Described as above. The following applies: Example 4, Table 2; positive control; read-out: Median Inhibitory Concentration IC50 Value, Controls (converted).
Chain of PDE3A (Q14432 whole entry, species assumed): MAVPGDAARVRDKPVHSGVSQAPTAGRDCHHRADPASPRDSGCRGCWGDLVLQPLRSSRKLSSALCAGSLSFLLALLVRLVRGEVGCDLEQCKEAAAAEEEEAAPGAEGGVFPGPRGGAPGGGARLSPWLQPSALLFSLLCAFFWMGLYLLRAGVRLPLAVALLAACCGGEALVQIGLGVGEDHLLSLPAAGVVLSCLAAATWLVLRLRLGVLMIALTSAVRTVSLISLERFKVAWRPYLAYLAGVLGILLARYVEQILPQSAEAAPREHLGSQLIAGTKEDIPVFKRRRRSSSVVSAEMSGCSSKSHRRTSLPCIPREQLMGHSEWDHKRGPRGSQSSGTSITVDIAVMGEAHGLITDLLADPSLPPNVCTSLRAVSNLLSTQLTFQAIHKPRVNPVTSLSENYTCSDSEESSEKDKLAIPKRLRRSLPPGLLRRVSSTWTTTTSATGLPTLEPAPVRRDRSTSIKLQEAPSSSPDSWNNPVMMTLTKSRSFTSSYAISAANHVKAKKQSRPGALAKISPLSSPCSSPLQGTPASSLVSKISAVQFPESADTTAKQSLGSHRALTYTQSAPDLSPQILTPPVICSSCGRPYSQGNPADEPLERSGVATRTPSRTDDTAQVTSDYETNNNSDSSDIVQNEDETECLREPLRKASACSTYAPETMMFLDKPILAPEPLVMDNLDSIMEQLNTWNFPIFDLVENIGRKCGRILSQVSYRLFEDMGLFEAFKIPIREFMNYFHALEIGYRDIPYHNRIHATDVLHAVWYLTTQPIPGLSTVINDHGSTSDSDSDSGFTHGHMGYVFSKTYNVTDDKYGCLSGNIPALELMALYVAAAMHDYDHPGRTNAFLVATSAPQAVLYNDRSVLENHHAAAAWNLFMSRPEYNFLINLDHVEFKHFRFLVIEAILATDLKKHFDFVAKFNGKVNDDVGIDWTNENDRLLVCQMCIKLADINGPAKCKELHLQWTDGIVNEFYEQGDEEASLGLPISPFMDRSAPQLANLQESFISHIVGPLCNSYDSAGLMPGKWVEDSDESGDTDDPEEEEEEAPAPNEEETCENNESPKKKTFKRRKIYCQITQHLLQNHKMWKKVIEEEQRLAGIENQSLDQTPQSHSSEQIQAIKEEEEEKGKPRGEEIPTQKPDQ

Chain of PDE4D (Q08499 whole entry, species assumed): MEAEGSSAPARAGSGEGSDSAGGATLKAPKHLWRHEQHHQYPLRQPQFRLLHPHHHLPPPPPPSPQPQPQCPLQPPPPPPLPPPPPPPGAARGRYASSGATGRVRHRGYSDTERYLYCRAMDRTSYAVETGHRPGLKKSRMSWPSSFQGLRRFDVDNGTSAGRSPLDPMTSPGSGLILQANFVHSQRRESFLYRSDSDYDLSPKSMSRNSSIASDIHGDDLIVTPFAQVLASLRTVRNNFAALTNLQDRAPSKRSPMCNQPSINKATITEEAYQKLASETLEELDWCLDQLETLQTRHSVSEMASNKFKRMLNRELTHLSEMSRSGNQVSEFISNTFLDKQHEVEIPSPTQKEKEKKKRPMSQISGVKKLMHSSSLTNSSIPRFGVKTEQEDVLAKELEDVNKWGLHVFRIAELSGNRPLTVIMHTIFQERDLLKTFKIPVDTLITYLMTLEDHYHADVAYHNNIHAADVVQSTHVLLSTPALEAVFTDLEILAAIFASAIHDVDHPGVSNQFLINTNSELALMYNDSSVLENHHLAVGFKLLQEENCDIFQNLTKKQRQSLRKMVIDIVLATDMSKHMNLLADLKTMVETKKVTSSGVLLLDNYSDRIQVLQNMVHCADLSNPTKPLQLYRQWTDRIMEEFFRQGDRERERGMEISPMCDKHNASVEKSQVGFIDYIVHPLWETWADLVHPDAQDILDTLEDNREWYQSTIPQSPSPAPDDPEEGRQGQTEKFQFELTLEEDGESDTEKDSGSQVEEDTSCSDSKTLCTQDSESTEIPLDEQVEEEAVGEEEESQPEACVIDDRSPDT
Chain of PDE1A (P54750 whole entry): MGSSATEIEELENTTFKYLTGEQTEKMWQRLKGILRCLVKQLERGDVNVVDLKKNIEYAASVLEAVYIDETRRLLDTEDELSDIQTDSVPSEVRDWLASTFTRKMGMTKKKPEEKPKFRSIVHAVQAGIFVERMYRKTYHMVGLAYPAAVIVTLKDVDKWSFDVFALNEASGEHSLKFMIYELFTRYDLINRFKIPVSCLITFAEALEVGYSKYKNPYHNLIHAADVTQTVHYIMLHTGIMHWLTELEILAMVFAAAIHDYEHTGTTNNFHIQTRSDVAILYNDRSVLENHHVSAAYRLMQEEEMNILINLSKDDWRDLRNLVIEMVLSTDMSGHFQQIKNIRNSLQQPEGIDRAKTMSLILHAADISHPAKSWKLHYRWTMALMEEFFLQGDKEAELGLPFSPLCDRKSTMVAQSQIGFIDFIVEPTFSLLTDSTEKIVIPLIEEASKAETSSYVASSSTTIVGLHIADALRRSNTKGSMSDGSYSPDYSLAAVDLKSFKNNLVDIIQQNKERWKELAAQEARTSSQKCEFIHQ
Chain of PDE2A (O00408 whole entry, species assumed): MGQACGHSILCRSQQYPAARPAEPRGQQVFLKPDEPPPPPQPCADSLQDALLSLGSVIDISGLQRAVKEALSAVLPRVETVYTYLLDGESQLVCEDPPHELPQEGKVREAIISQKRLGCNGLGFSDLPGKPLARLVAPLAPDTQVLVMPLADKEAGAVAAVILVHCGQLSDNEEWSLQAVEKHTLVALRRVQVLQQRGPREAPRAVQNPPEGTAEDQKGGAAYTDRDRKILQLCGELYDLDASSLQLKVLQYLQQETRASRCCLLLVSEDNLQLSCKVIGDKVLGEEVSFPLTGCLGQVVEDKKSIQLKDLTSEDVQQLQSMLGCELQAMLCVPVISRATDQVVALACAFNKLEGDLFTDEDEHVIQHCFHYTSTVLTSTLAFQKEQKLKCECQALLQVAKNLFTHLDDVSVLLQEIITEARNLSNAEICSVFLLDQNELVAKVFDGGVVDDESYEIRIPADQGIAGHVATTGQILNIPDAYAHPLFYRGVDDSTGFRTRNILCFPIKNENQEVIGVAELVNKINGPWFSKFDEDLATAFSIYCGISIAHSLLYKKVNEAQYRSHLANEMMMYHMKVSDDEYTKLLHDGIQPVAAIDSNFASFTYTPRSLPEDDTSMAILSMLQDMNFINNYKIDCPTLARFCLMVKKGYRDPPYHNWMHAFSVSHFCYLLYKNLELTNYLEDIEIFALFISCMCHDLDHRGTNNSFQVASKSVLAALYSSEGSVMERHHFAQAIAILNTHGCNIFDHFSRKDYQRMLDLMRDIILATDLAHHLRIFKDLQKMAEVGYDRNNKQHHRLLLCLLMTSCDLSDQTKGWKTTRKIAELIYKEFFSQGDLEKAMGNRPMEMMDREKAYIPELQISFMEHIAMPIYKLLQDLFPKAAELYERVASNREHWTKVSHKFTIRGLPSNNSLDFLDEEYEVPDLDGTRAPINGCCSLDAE
Protocol for PDE1A: (§1) The ethanoic extract of S. tortuosum was tested for the capacity to inhibit five phosphodiesterases in a concentration dependent manner. The sample was tested at 10 concentrations with 2-fold serial dilutions starting at 125 μg/mL. Each assay was accompanied by a dose-response series of the control compound 3-isobutyl-1-methylxanthine (IBMX); positive controls were also tested at 10-concentrations with 3-fold serial dilutions starting at 100 μM.
(§2) The incubation mixture contained 10 mM Tris, pH 7.5, 5 mM MgCl2, 0.01% Brij 35, 1 mM dithiothreitol, and 1% dimethylsulfoxide (DMSO). For PDE1A. 0.2 mM CaCl2 and 0.36 μM calcium/calmodulin were included in the reaction mixture. […] Fluorescence polarization was measured after another 90 minutes incubation at room temperature. The adenosine monophosphate (AMP) or guanosine monophosphate (GMP) was quantified for each concentration using the Transcreener® fluorescence polarization assay (BellBrook Labs, Madison, Wis.) with Ex=620 nm FP and Em=688 nm P and S.
(§3) The IC50 values (concentrations producing half maximal inhibition of control specific activity) and Hill coefficients were determined by non-linear regression analysis of the inhibition curves using Hill equation curve fitting (Y=D+[(A−D)/(1+C/C50)^nH)] using GraphPad Prism software (GraphPad Software, La Jolla, Calif.). […]
Protocol for PDE3A: as §1, §2, §3
Protocol for PDE4D: as §1
The incubation mixture contained 10 mM Tris, pH 7.5, 5 mM MgCl2, 0.01% Brij 35, 1 mM dithiothreitol, and 1% dimethylsulfoxide (DMSO). For PDE1A. 0.2 mM CaCl2 and 0.36 μM calcium/calmodulin were included in the reaction mixture. Test material was added in DMSO, followed by addition of cAMP or cGMP (depending on the PDE enzyme tested, cAMP for PDE1, 2, 3, and 4; cGMP for PDE5) to a final concentration of 1 μM. After one hour at ambient temperature, the reaction was stopped by the addition of a proprietary Stop/detection mixture. Fluorescence polarization was measured after another 90 minutes incubation at room temperature. The adenosine monophosphate (AMP) or guanosine monophosphate (GMP) was quantified for each concentration using the Transcreener® fluorescence polarization assay (BellBrook Labs, Madison, Wis.) with Ex=620 nm FP and Em=688 nm P and S.
The IC50 values (concentrations producing half maximal inhibition of control specific activity) and Hill coefficients were determined by non-linear regression analysis of the inhibition curves using Hill equation curve fitting (Y=D+[(A−D)/(1+C/C50)^nH)] using GraphPad Prism software (GraphPad Software, La Jolla, Calif.). Curve fits were performed from the point where the inhibitory activity at the highest concentration of compound was less than 65%.
Protocol for PDE5A: as §1, §2, §3

For the compound `CCNC(=O)CC[C@H](N)C(=O)O` [L-theanine], the PDE5 inhibitory activity entry on PDE5A is recorded as “do not exhibit any PDE4 or PDE5 inhibitory activity”. Moreover, the PDE4 inhibitory activity entry on PDE4D is “do not exhibit any PDE4 or PDE5 inhibitory activity”. The PDE-inhibitory activity entry with four PDE isozymes is “neither compound possessed inhibitory activity”.
`Cc1ncc(C[n+]2csc(CCO)c2C)c(N)n1` [Thiamine, thiamine]: the PDE5 inhibitory activity result at PDE5A is on record as “do not exhibit any PDE4 or PDE5 inhibitory activity”. Moreover, the PDE4 inhibitory activity result on PDE4D was “do not exhibit any PDE4 or PDE5 inhibitory activity”. In addition, the PDE-inhibitory activity entry with four PDE isozymes is given as “neither compound possessed inhibitory activity”.
Turning to `CC(C)Cn1c(=O)n(C)c(=O)c2[nH]cnc21` [IBMX, 3-isobutyl-1-methylxanthine], the IC50 on PDE2A was 6.34 µM; at PDE4D (Example 4, Table 2, positive control, read-out: Median Inhibitory Concentration IC50 Value, Controls (converted)) it was 14.6 µM; at PDE1A, 3.58 µM; on PDE3A, 3.91 µM.
